Where two headings read alike, the source gives them in different places.
What was measured:
[1] = Short-term stability in fortified plasma; assay type: physicochemical, human
[2] = for plasma concentration, Without hydrolysis / plasma concentration, Hydrolysis: LOQ 0.25 μg L^−1; for plasma concentration, Hydrolysis: with hydrolysis
[3] = High QC 750 μg L^−1, n=5, vs freshly fortified
[4] = Low QC 0.75 μg L^−1, n=5, vs freshly fortified
[5] = Medium QC 25 μg L^−1, n=5, vs freshly fortified
[6] = rat plasma, 0.5 mg kg-1 MDPV ip, 10 min
[7] = rat plasma, 0.5 mg kg-1 MDPV ip, 20 min
[8] = rat plasma, 0.5 mg kg-1 MDPV ip, 30 min
[9] = rat plasma, 0.5 mg kg-1 MDPV ip, 60 min
[10] = rat plasma, 0.5 mg kg-1 MDPV ip, 120 min
[11] = rat plasma, 0.5 mg kg-1 MDPV ip, 240 min
[12] = rat plasma, 0.5 mg kg-1 MDPV ip, 480 min
[13] = rat plasma, 0.5 mg kg-1 MDPV sc, 10 min
[14] = rat plasma, 0.5 mg kg-1 MDPV sc, 20 min
[15] = rat plasma, 0.5 mg kg-1 MDPV sc, 30 min
[16] = rat plasma, 0.5 mg kg-1 MDPV sc, 60 min
[17] = rat plasma, 0.5 mg kg-1 MDPV sc, 120 min
[18] = rat plasma, 0.5 mg kg-1 MDPV sc, 240 min
[19] = rat plasma, 0.5 mg kg-1 MDPV sc, 480 min

## CCCC(C(=O)c1ccc(O)c(O)c1)N1CCCC1 (stereo not shown) [3,4-catechol-PV, 3,4-dihydroxypyrovalerone]
[1]; [3]
  Stability (% difference) 3 freeze-thaw cycles: −3.6 % difference
  Stability (% difference) 72h at 4°C: −3 % difference
[1]; [4]
  Stability (% difference) 3 freeze-thaw cycles: −3.2 % difference
  Stability (% difference) 72h at 4°C: −7.3 % difference
[1]; [5]
  Stability (% difference) 3 freeze-thaw cycles: −2.6 % difference
  Stability (% difference) 72h at 4°C: 6.5 % difference
[2]; rat plasma after 0.5 mg kg-1 MDPV ip or sc, with vs without hydrolysis
  change of plasma concentration without the deconjugation step (hydrolysis): greatly decreased
[2]; rat plasma after MDPV, concluded from hydrolysis comparison
  form present in rat plasma: primarily present as the conjugated forms
[2]; rat plasma, 0.5 mg kg-1 MDPV ip, 0 min (before dosing)
  plasma concentration, Without hydrolysis: <LOQ
[2]; [6]
  plasma concentration, Hydrolysis: 4.3 ng/mL
  plasma concentration, Without hydrolysis: <LOQ
[2]; [7]
  plasma concentration, Hydrolysis: 5.1 ng/mL
  plasma concentration, Without hydrolysis: <LOQ
[2]; [8]
  plasma concentration, Hydrolysis: 4.9 ng/mL
  plasma concentration, Without hydrolysis: <LOQ
[2]; [9]
  plasma concentration, Hydrolysis: 3.7 ng/mL
  plasma concentration, Without hydrolysis: <LOQ
[2]; [10]
  plasma concentration, Hydrolysis: 9.6 ng/mL
  plasma concentration, Without hydrolysis: <LOQ
[2]; [11]
  plasma concentration, Hydrolysis: 11.8 ng/mL
  plasma concentration, Without hydrolysis: <LOQ
[2]; [12]
  plasma concentration, Hydrolysis: 5.3 ng/mL
  plasma concentration, Without hydrolysis: <LOQ
[2]; rat plasma, 0.5 mg kg-1 MDPV sc, 0 min (before dosing)
  plasma concentration, Without hydrolysis: <LOQ
[2]; [13]
  plasma concentration, Hydrolysis: 1.3 ng/mL
  plasma concentration, Without hydrolysis: <LOQ
[2]; [14]
  plasma concentration, Hydrolysis: 2.7 ng/mL
  plasma concentration, Without hydrolysis: <LOQ
[2]; [15]
  plasma concentration, Hydrolysis: 3.1 ng/mL
  plasma concentration, Without hydrolysis: <LOQ
[2]; [16]
  plasma concentration, Hydrolysis: 3.8 ng/mL
  plasma concentration, Without hydrolysis: <LOQ
[2]; [17]
  plasma concentration, Hydrolysis: 9.4 ng/mL
  plasma concentration, Without hydrolysis: <LOQ
[2]; [18]
  plasma concentration, Hydrolysis: 9.8 ng/mL
  plasma concentration, Without hydrolysis: <LOQ
[2]; [19]
  plasma concentration, Hydrolysis: 3.6 ng/mL
  plasma concentration, Without hydrolysis: <LOQ
[2]; rat plasma, 0.5 mg kg^−1 MDPV intraperitoneal, samples 10-480 min after dosing
  plasma concentration range after intraperitoneal dosing: 3.7 to 11.8 ng/mL
[2]; rat plasma, 0.5 mg kg^−1 MDPV subcutaneous, samples 10-480 min after dosing
  plasma concentration range after the subcutaneous dose: 1.3 to 9.8 ng/mL
